Experimental findings from patent publication US20250353864A1, “INDAZOLE CONTAINING MACROCYCLES AND THEIR USE” (BLOSSOMHILL THERAPEUTICS, INC., priority 2022, published 2025) are described below.

What all share (assay type): biochemical
Assay [1] deals with EGFR L858R/T790M/C797S mutant (Homo sapiens (Human), UniProt P00533, C797S/L858R/T790M). In words: HotSpot radiometric kinase assay, EGFR L858R/T790M/C797S mutant. To be noted: 10 μM ATP. In outline:
(§1)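 10 μM ATP (33P-labelled, final); 120 min RT; P81 filter capture, 0.75% phosphoric acid washes. Cpd preincubated ~20 min with enzyme/substrate, 20 mM Hepes pH 7.5, 10 mM MgCl2, 1% DMSO. IC50 by curve fit.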

Another assay concerns the target EGFR L858R mutant (Homo sapiens (Human), UniProt P00533, L858R). In words: HotSpot radiometric kinase assay, EGFR L858R mutant. To be noted: 10 μM ATP. In outline: as §1
In assay [2] the target is EGFR Δ746-750/C797S mutant (Homo sapiens (Human), UniProt P00533, C797S/DEL746-750). Nature of the assay: HotSpot radiometric kinase assay, EGFR Δ746-750/C797S mutant. To be noted: 10 μM ATP. In outline:
as §1

A further assay addresses EGFR (D770_N771insNPG) (Homo sapiens (Human), UniProt P00533, INS770NPG). In words: HotSpot radiometric kinase assay, EGFR (D770_N771insNPG). To be noted: 10 μM ATP, read-out: EGFR (Δ770_N771insNPG) IC50. In outline: as §1
For a further assay, the target named is EGFR WT (Homo sapiens (Human), UniProt P00533). In words: HotSpot radiometric kinase assay (Reaction Biology), EGFR WT. The following applies: 10 μM ATP. The method, boiled down: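 IC50 values come from curve fits of ^33P incorporation captured on P81 filters after acid washing. Kinase reactions ran 120 min at room temperature with 10 μM ATP, added about 20 min after compound. Buffer was Hepes pH 7.5 containing Mg, DTT and 1% DMSO.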

The next assay concerns the target EGFR L858R/T790M mutant (Homo sapiens (Human), UniProt P00533, L858R/T790M). In words: HotSpot radiometric kinase assay, EGFR L858R/T790M mutant. The following applies: 10 μM ATP. In outline: as §1
In another assay the target is EGFR Δ746-750 mutant (Homo sapiens (Human), UniProt P00533, DEL746-750). Nature of the assay: HotSpot radiometric kinase assay, EGFR Δ746-750 mutant. The following applies: 10 μM ATP. The method, boiled down:
as §1

Chain of EGFR Δ746-750 mutant (P00533 other isoform, or with tags, fused parts or gaps del 1-668/del 746-750 limits assumed): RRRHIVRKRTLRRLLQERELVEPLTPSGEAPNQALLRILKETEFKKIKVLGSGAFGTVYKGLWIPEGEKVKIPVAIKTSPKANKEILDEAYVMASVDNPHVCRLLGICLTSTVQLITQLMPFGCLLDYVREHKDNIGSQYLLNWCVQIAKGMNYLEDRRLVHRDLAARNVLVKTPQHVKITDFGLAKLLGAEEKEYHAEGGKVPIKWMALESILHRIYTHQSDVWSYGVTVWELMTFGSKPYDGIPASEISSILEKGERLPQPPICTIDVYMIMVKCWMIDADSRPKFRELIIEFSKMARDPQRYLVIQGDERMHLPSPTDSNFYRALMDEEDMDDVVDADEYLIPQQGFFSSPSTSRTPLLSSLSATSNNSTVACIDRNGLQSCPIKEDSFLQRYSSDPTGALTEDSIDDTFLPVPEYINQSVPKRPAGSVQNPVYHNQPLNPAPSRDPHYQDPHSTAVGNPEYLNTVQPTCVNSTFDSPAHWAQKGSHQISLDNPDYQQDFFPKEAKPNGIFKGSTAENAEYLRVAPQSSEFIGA
Chain of EGFR L858R/T790M/C797S mutant (P00533 25-1210 T790M/C797S/L858R): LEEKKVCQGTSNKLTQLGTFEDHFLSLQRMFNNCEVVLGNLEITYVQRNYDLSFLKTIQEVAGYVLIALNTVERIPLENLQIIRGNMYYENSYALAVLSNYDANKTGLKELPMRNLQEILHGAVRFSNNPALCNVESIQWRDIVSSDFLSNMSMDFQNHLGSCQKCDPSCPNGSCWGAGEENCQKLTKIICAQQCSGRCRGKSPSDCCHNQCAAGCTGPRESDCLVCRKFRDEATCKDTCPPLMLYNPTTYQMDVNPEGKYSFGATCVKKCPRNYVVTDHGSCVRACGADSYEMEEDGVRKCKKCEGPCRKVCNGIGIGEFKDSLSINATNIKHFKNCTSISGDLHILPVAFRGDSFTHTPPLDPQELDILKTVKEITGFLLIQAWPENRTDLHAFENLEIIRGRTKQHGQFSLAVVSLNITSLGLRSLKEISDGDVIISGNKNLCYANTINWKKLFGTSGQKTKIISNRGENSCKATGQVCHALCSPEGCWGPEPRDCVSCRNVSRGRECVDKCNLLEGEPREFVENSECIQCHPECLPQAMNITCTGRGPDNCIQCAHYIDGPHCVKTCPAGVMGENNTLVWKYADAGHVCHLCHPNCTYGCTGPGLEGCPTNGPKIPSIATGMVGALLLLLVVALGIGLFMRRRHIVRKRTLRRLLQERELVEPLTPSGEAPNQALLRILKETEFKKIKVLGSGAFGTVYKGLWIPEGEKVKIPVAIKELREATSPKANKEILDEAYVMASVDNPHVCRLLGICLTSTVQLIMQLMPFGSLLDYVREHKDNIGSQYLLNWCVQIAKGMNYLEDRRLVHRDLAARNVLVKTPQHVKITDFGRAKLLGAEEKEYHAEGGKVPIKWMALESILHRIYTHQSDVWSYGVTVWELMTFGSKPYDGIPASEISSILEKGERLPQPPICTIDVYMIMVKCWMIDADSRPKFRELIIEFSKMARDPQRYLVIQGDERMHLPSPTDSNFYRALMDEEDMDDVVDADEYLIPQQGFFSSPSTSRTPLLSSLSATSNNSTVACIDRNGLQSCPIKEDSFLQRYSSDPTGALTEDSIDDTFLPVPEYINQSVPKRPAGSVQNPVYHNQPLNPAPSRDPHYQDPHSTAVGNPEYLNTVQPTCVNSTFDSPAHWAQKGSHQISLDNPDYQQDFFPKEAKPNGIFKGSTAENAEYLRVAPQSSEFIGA
Chain of EGFR L858R/T790M mutant (P00533 25-1210 T790M/L858R): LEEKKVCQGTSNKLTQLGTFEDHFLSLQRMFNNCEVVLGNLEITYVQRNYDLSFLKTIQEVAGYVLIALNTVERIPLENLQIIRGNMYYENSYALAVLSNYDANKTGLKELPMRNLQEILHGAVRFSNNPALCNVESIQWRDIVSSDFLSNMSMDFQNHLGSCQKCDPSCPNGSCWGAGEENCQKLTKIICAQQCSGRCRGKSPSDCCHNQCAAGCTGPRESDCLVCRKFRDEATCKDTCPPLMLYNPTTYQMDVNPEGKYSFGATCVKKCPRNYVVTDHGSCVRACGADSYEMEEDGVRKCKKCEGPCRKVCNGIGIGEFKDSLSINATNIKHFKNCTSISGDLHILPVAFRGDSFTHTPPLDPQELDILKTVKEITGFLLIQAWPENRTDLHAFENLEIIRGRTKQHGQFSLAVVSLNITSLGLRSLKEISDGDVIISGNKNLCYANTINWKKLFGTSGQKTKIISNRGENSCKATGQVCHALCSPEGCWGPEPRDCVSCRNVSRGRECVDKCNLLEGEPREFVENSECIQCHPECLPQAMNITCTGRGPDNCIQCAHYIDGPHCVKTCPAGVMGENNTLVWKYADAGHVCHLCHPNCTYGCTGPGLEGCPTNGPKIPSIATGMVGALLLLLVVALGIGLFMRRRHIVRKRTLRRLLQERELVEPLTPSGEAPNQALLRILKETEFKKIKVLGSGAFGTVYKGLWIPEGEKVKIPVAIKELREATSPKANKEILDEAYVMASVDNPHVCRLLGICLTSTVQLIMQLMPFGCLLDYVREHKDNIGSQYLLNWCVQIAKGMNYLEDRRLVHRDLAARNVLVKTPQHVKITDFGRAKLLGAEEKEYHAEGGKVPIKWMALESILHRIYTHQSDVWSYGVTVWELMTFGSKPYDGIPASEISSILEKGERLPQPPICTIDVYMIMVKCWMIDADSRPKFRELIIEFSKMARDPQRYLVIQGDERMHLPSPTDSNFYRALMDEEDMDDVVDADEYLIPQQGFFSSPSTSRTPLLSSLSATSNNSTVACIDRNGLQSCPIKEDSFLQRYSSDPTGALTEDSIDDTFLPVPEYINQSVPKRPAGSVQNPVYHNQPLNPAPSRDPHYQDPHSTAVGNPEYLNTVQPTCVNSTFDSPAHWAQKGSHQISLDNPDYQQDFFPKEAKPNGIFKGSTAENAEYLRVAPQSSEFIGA
Chain of EGFR Δ746-750/C797S mutant (P00533 other isoform, or with tags, fused parts or gaps C797S/del 1-668/del 746-750 limits assumed): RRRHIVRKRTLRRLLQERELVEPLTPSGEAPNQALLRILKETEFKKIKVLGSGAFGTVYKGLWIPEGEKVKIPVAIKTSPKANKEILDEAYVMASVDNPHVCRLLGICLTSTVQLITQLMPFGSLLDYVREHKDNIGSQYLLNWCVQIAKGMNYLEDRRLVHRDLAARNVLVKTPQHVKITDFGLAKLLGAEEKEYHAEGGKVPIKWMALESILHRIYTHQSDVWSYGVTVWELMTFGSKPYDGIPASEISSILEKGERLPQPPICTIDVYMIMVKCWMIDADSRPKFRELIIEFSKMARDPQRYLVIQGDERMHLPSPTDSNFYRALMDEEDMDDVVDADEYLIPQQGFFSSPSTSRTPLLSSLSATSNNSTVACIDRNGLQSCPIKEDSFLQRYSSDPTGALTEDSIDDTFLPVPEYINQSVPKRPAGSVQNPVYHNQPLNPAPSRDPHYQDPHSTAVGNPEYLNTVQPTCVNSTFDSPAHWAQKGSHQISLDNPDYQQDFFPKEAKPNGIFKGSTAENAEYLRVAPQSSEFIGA
Chain of EGFR L858R mutant (P00533 25-1210 L858R): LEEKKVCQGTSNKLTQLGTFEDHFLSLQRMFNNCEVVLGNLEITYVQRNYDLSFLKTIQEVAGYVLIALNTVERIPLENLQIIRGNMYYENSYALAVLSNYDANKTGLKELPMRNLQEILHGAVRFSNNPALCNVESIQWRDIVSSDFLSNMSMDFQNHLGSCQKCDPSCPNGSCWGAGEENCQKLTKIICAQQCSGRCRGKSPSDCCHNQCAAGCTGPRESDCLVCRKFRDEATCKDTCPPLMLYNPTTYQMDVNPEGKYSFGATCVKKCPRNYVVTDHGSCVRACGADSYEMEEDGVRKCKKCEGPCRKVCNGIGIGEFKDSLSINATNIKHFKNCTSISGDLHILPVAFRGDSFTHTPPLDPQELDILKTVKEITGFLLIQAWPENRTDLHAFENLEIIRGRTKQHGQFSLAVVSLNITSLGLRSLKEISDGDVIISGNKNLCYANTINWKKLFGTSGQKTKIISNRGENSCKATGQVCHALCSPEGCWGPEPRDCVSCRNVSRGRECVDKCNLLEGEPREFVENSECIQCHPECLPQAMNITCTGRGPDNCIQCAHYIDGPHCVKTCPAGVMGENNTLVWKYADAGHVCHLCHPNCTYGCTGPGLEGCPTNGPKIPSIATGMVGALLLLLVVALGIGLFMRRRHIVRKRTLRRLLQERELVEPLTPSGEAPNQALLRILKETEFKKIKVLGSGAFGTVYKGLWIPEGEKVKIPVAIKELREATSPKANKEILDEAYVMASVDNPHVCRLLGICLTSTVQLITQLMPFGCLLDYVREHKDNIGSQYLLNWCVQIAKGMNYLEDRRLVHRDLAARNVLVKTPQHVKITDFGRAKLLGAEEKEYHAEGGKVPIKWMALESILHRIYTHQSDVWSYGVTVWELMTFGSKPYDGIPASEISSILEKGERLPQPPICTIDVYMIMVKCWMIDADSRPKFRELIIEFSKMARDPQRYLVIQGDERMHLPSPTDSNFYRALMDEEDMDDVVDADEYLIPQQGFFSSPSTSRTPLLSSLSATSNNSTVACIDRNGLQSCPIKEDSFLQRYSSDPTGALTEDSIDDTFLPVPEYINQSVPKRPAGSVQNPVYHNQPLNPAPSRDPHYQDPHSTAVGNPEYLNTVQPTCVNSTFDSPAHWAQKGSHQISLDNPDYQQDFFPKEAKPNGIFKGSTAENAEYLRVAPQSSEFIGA

Turning to `Cc1nn(CCO)c2c1/C=C/c1n[nH]c3ccc(cc13)-c1cnn(C)c1OC(C1CCC1)CN(C)C2` (centres unmarked) [Example 152, 2-[(17E)-10-cyclobutyl-8,12,16-trimethyl-2,8,10,11,12,13-hexahydro-14H-3,5-ethenotripyrazolo[3,4-f:3′,4′-j:4″,3″-n][1,4]oxazacyclopentadecin-14-yl]ethan-1-ol], the IC50 in assay [1] worked out at 0.62 nM; against EGFR L858R mutant it was 20.7 nM; in assay [2] it was 86.4 nM; at EGFR (D770_N771insNPG) it was 94.5 nM; against EGFR WT it was 112 nM; on EGFR L858R/T790M mutant, 0.58 nM. The half-maximal inhibitory concentration (IC50) at EGFR Δ746-750 mutant was 61.5 nM.
Consider `C[C@H]1CN(C)Cc2nn3c(c2/C=C/c2n[nH]c4ccc(cc24)-c2cnn(C)c2O1)CN(CCS(C)(=O)=O)CC3` [Example 166, (10S,20E)-18-[2-(methanesulfonyl)ethyl]-8,10,12-trimethyl-2,8,10,11,12,13,16,17,18,19-decahydro-3,5-ethenopyrazino[1′,2′:1,5]pyrazolo [3,4-f]dipyrazolo[3,4-j:4′,3′-n][1,4]oxazacyclopentadecine], for which the concentration for half-maximal inhibition (IC50) in assay [1] was determined as 0.55 nM; at EGFR L858R mutant, 12.8 nM; in assay [2] it was 8.1 nM; on EGFR (D770_N771insNPG), 45.6 nM; on EGFR WT it was 99.8 nM; on EGFR L858R/T790M mutant, 0.72 nM. Further, on EGFR Δ746-750 mutant, the half-inhibitory concentration (IC50) was determined as 15 nM.
Turning to `C[C@H]1CN(C)Cc2c(c(OC3CCN(S(C)(=O)=O)CC3)nn2CCO)/C=C/c2n[nH]c3ccc(cc23)-c2cnn(C)c2O1` [Example 175, 2-[(10S,17E)-16-{[1-(methanesulfonyl)piperidin-4-yl]oxy}-8,10,12-trimethyl-2,8,10,11,12,13-hexahydro-14H-3,5-ethenotripyrazolo[3,4-f:3′,4′-j:4″,3″- n][1,4]oxazacyclopentadecin-14-yl]ethan-1-ol], the IC50 in assay [1] amounted to 3.39 nM; on EGFR L858R mutant, 42.6 nM; in assay [2], 8.97 nM; at EGFR (D770_N771insNPG), 713 nM; on EGFR WT, 176 nM; at EGFR L858R/T790M mutant it was 2.06 nM. Besides, half-maximal inhibition against EGFR Δ746-750 mutant (IC50) was put at 67.8 nM.
For `C[C@H]1CN(C)Cc2c(c(O[C@H]3CCN(S(C)(=O)=O)C3)nn2CCO)/C=C/c2n[nH]c3ccc(cc23)-c2cnn(C)c2O1` [Example 182, 2-[(10S,17E)-16-{[(3S)-1-(methanesulfonyl)pyrrolidin-3-yl]oxy}-8,10,12-trimethyl-2,8,10,11,12,13-hexahydro-14H-3,5-ethenotripyrazolo[3,4-f:3′,4′-j:4″,3″- n][1,4]oxazacyclopentadecin-14-yl]ethan-1-ol], the IC50 in assay [1] turned out to be 1.37 nM; against EGFR L858R mutant it was 24.7 nM; in assay [2], 6.6 nM; on EGFR (D770_N771insNPG), 300 nM; on EGFR WT, 139 nM; at EGFR L858R/T790M mutant, 0.54 nM. The same compound registered an IC50 against EGFR Δ746-750 mutant of 24 nM.
Regarding `Cc1nn(C)c2c1-c1ccc3[nH]nc(c3c1)/C=C/c1c(OC(C)C)nn(CCO)c1CN(C(C)C)C[C@@H](C)O2` [Example 202, 2-{(10R,17E)-6,8,10-trimethyl-12-(propan-2-yl)-16-[(propan-2-yl)oxy]-2,8,10,11,12,13-hexahydro-14H-3,5-ethenotripyrazolo[3,4-f:3′,4′-j:4″,3″-n][1,4]oxazacyclopentadecin-14-yl}ethan-1-ol], the IC50 in assay [1] was 2 nM; against EGFR L858R mutant, 98.8 nM; in assay [2] it was 20.7 nM; at EGFR (D770_N771insNPG), 423 nM; at EGFR WT, 179 nM; at EGFR L858R/T790M mutant, 3.38 nM. Also, it took 45 nM to reach half-maximal inhibition on EGFR Δ746-750 mutant (IC50).
Turning to `CCOc1nn(CCO)c2c1/C=C/c1n[nH]c3ccc(cc13)-c1c(C)nn(C)c1O[C@H](C)CN(C1CC1)C2` [Example 204], the IC50 was found to be 2.53 nM in assay [1]; 5.5 nM on EGFR L858R mutant; 1.93 nM in assay [2]; 20.1 nM at EGFR (D770_N771insNPG); 5.49 nM against EGFR WT; 1.77 nM on EGFR L858R/T790M mutant. In addition, at EGFR Δ746-750 mutant, the IC50 was determined as 1.85 nM.
For the compound `CCOc1nn(CCO)c2c1/C=C/c1n[nH]c3ccc(cc13)-c1c(C)nn(C)c1OC[C@H](C)N(C1CC1)C2` [Example 205, 2-[(11S,17E)-12-cyclopropyl-16-ethoxy-6,8,11-trimethyl-2,8,10,11,12,13-hexahydro-14H-3,5-ethenotripyrazolo[3,4-f:3′,4′-j:4″,3″- n][1,4]oxazacyclopentadecin-14-yl]ethan-1-ol], the IC50 in assay [1] was 1.13 nM; against EGFR L858R mutant, 16.3 nM; in assay [2], 1.42 nM; at EGFR (D770_N771insNPG) it was 137 nM; against EGFR WT, 58.3 nM; against EGFR L858R/T790M mutant it was 1 nM. The compound also showed a half-maximal inhibitory concentration (IC50) on EGFR Δ746-750 mutant of 5.17 nM.
`CC(C)Oc1nn([C@@H](C)CO)c2c1/C=C/c1n[nH]c3ccc(cc13)-c1cnn(C)c1O[C@H](C)CN(C(C)C)C2` [Example 207, (2S)-2-{(10R,17E)-8,10-dimethyl-12-(propan-2-yl)-16-[(propan-2-yl)oxy]-2,8,10,11,12,13-hexahydro-14H-3,5-ethenotripyrazolo[3,4-f:3′,4′-j:4″,3″- n][1,4]oxazacyclopentadecin-14-yl}propan-1-ol]: the IC50 (in assay [1]; at EGFR L858R mutant; in assay [2]; at EGFR (D770_N771insNPG); on EGFR WT; at EGFR L858R/T790M mutant) was more than 1000 nM throughout. On EGFR Δ746-750 mutant, this compound displayed an IC50 of more than 1000 nM.
As for `CCOc1nn(CCO)c2c1/C=C/c1n[nH]c3ccc(cc13)-c1cnn(C)c1O[C@H](C)CN(C(C)=O)C2` [Example 217, 1-[(10R,17E)-16-ethoxy-14-(2-hydroxyethyl)-8,10-dimethyl-2,8,10,11,13,14-hexahydro-12H-3,5-ethenotripyrazolo[3,4-f:3′,4′-j:4″,3″-n][1,4]oxazacyclopentadecin-12-yl]ethan-1-one], the IC50 in assay [1] came to 1.42 nM; at EGFR L858R mutant, 37.1 nM; in assay [2], 1.94 nM; on EGFR (D770_N771insNPG), 107 nM; against EGFR WT, 71.7 nM; against EGFR L858R/T790M mutant it was 0.69 nM. The compound further registered an IC50 against EGFR Δ746-750 mutant of 3.61 nM.
Regarding `CCOC(=O)Cn1nc(OCC)c2c1CN(CC)C[C@H](C)Oc1c(cnn1C)-c1ccc3[nH]nc(c3c1)/C=C/2` [Example 218, ethyl [(10S,17E)-16-ethoxy-12-ethyl-8,10-dimethyl-2,8,10,11,12,13-hexahydro-14H-3,5-ethenotripyrazolo[3,4-f:3′,4′-j:4″,3″-n][1,4]oxazacyclopentadecin-14-yl]acetate], the half-inhibitory concentration (IC50) in assay [1] was 2.04 nM; at EGFR L858R mutant, 28.8 nM; in assay [2], 16.6 nM; on EGFR (D770_N771insNPG) it was 161 nM; on EGFR WT it was 119 nM; against EGFR L858R/T790M mutant it was 1.99 nM. For the same compound, the IC50 on EGFR Δ746-750 mutant was 8.48 nM.
Regarding `C[C@H]1CN(C)Cc2c(c(OC3CN(S(C)(=O)=O)C3)nn2CCO)/C=C/c2n[nH]c3ccc(cc23)-c2cnn(C)c2O1` [Example 221, 2-[(10S,17E)-16-{[1-(methanesulfonyl)azetidin-3-yl]oxy}-8,10,12-trimethyl-2,8,10,11,12,13-hexahydro-14H-3,5-ethenotripyrazolo[3,4-f:3′,4′-j:4″,3″-n][1,4]oxazacyclopentadecin-14-yl]ethan-1-ol], the half-inhibitory concentration (IC50) stood at 0.14 nM in assay [1]; 0.97 nM on EGFR L858R mutant; 0.35 nM in assay [2]; 10.3 nM on EGFR (D770_N771insNPG); 4.14 nM at EGFR WT; 0.21 nM against EGFR L858R/T790M mutant. The concentration for half-maximal inhibition (IC50) at EGFR Δ746-750 mutant amounted to 0.55 nM.

As a reminder, the IC50 is the midpoint of a concentration-inhibition curve.
